Results reported in the NIST ThermoML archive (doi:10.1016/j.jct.2016.07.032).
± gives the expanded uncertainty stated by the source.

Experiments:
[1] = 101.3 kPa, Liquid; for speed of sound: Frequency=3 MHz, Sing-around technique in a fixed-path interferometer; for mass density: Vibrating tube method
[2] = refractive index (Na D-line) (dimensionless); settings: 101.3 kPa, Liquid, Standard Abbe refractometry
[3] = xn = mol fraction of the nth substance listed; settings: 101.3 kPa, Liquid, x2 = 0; for speed of sound: Frequency=3 MHz, Sing-around technique in a fixed-path interferometer; for mass density: Vibrating tube method
[4] = refractive index (Na D-line) (dimensionless); xn = mol fraction of the nth substance listed; settings: 101.3 kPa, Liquid, Standard Abbe refractometry, x2 = 0

Row | SMILES | speed of sound ([1]; 298 K) | mass density ([1]; 298 K) | speed of sound ([1]; 303 K) | mass density ([1]; 303 K) | speed of sound ([1]; 308 K) | mass density ([1]; 308 K) | refractive index ([2]; 298 K) | refractive index ([2]; 303 K) | refractive index ([2]; 308 K) | speed of sound ([3]; 298 K) | mass density ([3]; 298 K) | speed of sound ([3]; 303 K) | mass density ([3]; 303 K) | speed of sound ([3]; 308 K) | mass density ([3]; 308 K) | refractive index ([4]; 298 K) | refractive index ([4]; 303 K) | refractive index ([4]; 308 K)
1 | CN1CCCC1=O [N-methylpyrrolidone] | 1546 ± 2 m/s | 1026 ± 2 kg/m3 | 1526 ± 2 m/s | 1022 ± 2 kg/m3 | 1507 ± 2 m/s | 1018 ± 2 kg/m3 | 1.467 ± 0.002 | 1.466 ± 0.002 | 1.464 ± 0.002 |  |  |  |  |  |  |  |  | 
2 | CN1CCCC1=O [N-methylpyrrolidone] + CCOc1ccccc1 |  |  |  |  |  |  |  |  |  | 1546 ± 2 m/s | 1026 ± 2 kg/m3 | 1526 ± 2 m/s | 1022 ± 2 kg/m3 | 1507 ± 2 m/s | 1018 ± 2 kg/m3 | 1.467 ± 0.002 | 1.466 ± 0.002 | 1.464 ± 0.002
3 | CN(C)C=O [dimethylformamide] | 1457 ± 2 m/s | 944 ± 2 kg/m3 | 1437 ± 2 m/s | 939 ± 2 kg/m3 | 1420 ± 2 m/s | 935 ± 2 kg/m3 | 1.429 ± 0.002 | 1.427 ± 0.002 | 1.425 ± 0.002 |  |  |  |  |  |  |  |  | 
4 | CN(C)C=O [dimethylformamide] + CCOc1ccccc1 |  |  |  |  |  |  |  |  |  | 1457 ± 2 m/s | 944 ± 2 kg/m3 | 1437 ± 2 m/s | 939 ± 2 kg/m3 | 1420 ± 2 m/s | 935 ± 2 kg/m3 | 1.429 ± 0.002 | 1.427 ± 0.002 | 1.425 ± 0.002
5 | CCOc1ccccc1 [ethoxybenzene] | 1369 ± 2 m/s | 960 ± 2 kg/m3 | 1349 ± 2 m/s | 955 ± 2 kg/m3 | 1329 ± 2 m/s | 951 ± 2 kg/m3 | 1.505 ± 0.002 | 1.503 ± 0.002 | 1.499 ± 0.002 |  |  |  |  |  |  |  |  | 
6 | C1CCOC1 [tetrahydrofuran] | 1278 ± 2 m/s | 882 ± 2 kg/m3 | 1254 ± 2 m/s | 878 ± 2 kg/m3 | 1230 ± 2 m/s | 874 ± 2 kg/m3 | 1.405 ± 0.002 | 1.403 ± 0.002 | 1.4 ± 0.002 |  |  |  |  |  |  |  |  | 
7 | C1CCOC1 [tetrahydrofuran] + CCOc1ccccc1 |  |  |  |  |  |  |  |  |  | 1278 ± 2 m/s | 882 ± 2 kg/m3 | 1254 ± 2 m/s | 878 ± 2 kg/m3 | 1230 ± 2 m/s | 874 ± 2 kg/m3 | 1.405 ± 0.002 | 1.403 ± 0.002 | 1.4 ± 0.002
